ChEMBL document CHEMBL4308920, “Optimizing the Pharmacological Profile of New Bifunctional Antihyperlipidemic/Antioxidant Morpholine Derivatives” (ACS Med Chem Lett, 2019)

How the values were obtained:
Liver = assay: Antioxidant activity in rat hepatic microsomes assessed as reduction in ferrous salt/ascorbic acid-induced lipid peroxidation of membrane lipids by measuring TBARS level after 45 mins by spectrophotometric method; format: functional, Microsome; conditions: 0.75 h
Squalene synthase [1] = target: T1, Squalene synthase (Rattus norvegicus, UniProt Q02769); assay: Inhibition of SQS in rat liver microsomes assessed as reduction in [3H]FPP conversion to squalene preincubated for 10 mins followed by [3H]FPP addition and measured after 10 mins by scintillation counting method
T1 sequence (Q02769 whole entry): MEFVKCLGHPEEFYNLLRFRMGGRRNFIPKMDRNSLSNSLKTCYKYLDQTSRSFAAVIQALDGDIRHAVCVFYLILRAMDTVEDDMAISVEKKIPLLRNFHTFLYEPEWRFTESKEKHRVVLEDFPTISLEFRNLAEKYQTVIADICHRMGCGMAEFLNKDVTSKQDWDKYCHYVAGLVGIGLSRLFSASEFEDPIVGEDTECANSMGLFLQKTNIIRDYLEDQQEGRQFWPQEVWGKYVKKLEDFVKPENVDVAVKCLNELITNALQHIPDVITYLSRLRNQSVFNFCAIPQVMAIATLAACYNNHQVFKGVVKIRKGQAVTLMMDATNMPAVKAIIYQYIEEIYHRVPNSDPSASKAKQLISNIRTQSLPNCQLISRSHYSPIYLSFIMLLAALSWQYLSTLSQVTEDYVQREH

[2] = target: T2, Squalene synthase (Rattus norvegicus) (UniProt Q02769); assay: Potency index, ratio of 2-(biphenyl-4-yl)-4-methylmorpholin-2-ol hydrobromide IC50 to compound IC50 for inhibition of SQS in rat liver microsomes
T2 sequence (whole entry): T1 sequence (Q02769 whole entry)

[3] = target: T2, Squalene synthase (Rattus norvegicus); assay: Potency index, ratio of 4-methyl-2-(4-(naphthalen-2-yl)phenyl)morpholin-2-ol hydrobromide IC50 to compound IC50 for inhibition of SQS in rat liver microsomes
[4] = target: T2, Squalene synthase (Rattus norvegicus); assay: Potency index, ratio of 2-(4-(6-methoxynaphthalen-2-yl)phenyl)-4-methylmorpholin-2-ol hydrobromide IC50 to compound IC50 for inhibition of SQS in rat liver microsomes
Mus musculus [5] = assay: Antihypercholesterolemic activity in C57BL/6 mouse model of Triton WR1339-induced hyperlipidemia assessed as reduction in plasma total cholesterol level at 84 umol/kg, ip measured after 24 hrs relative to control; format: functional; parameters: scale not given: the % may be the effect or the level left
Mus musculus [6] = assay: Antihyperlipidemic activity in C57BL/6 mouse model of Triton WR1339-induced hyperlipidemia assessed as reduction in plasma total triglyceride level at 84 umol/kg, ip measured after 24 hrs relative to control; format: functional; parameters: scale not given: the % may be the effect or the level left
Mus musculus [7] = assay: In vivo antioxidant activity in C57BL/6 mouse model of Triton WR1339-induced hyperlipidemia assessed as increase in total antioxidant capacity in plasma at 84 umol/kg, ip measured after 24 hrs relative to control; format: functional
Mus musculus [8] = assay: Anti-inflammatory activity in C57BL/6 mouse assessed as inhibition of carrageenan-induced hind paw edema at 300 umol/kg, ip treated immediately after carrageenan challenge measured after 3.5 hrs relative to control; format: functional; conditions: C57BL/6, ip
Squalene synthase [9] = target: T1, Squalene synthase; assay: Inhibition of SQS in rat liver microsomes assessed as reduction in [3H]FPP conversion to squalene after 45 mins by liquid scintillation counting method

| Structure (SMILES) | IC50 (Liver) | IC50 (Squalene synthase [1]) | further results |
| --- | --- | --- | --- |
| Cc1c(C)c2c(c(C)c1O)CCC(C)(C(=O)O)O2 (centres undefined) [TROLOX] | 25 µM |  |  |
| COc1ccc2cc(-c3ccc(C4(OCCCO[N+](=O)[O-])CN(C)CCO4)cc3)ccc2c1 (centres undefined) | 45 µM | 16.1 µM |  |
| Br.CN1CCOC(OCCCS)(c2ccc(-c3ccc4ccccc4c3)cc2)C1 (centres undefined) | 198 µM | 0.014 µM | Ratio IC50 [2]: < 136; Ratio IC50 [3]: < 136; Ratio IC50 [4]: < 136; Activity (Mus musculus [5]): 67%; Activity (Mus musculus [6]): 25%; TAC (Mus musculus [7]): 20%; inhibition in vivo at 300 µmol/kg (Mus musculus [8]): 40% |
| CN1CCOC(OCCCO[N+](=O)[O-])(c2ccc(-c3ccc4ccccc4c3)cc2)C1 (centres undefined) | 75.8 µM | 0.51 µM |  |
| CC(C)(Sc1cc(C(C)(C)C)c(O)c(C(C)(C)C)c1)Sc1cc(C(C)(C)C)c(O)c(C(C)(C)C)c1 [PROBUCOL] | > 500 µM |  |  |
| CN1CCOC(OCCCS)(c2ccc(-c3ccccc3)cc2)C1 (centres undefined) | 372 µM | 2.7 µM | Ratio IC50 [2]: < 136; Ratio IC50 [3]: < 136; Ratio IC50 [4]: < 136 |
| CN1CCSC(c2ccc3ccccc3c2)C1 (centres undefined) | 178 µM | 25.2 µM |  |
| CN1CC(c2ccc(-c3ccccc3)cc2)OC2CCCCC21 (centres undefined) | 218 µM | 20.8 µM |  |
| CN1C=C(c2ccc(-c3ccccc3)cc2)OC2CCCCC21 (centres undefined) | 65.1 µM | 42 µM |  |
| COc1ccc2cc(-c3ccc(C4(OCCCO)CN(C)CCO4)cc3)ccc2c1 (centres undefined) | 211 µM | 29.4 µM |  |
| CN1CCOC(c2ccc(-c3ccccc3)cc2)C1 (centres undefined) | 86.8 µM | > 100 µM |  |
| COc1ccc2cc(-c3ccc(C4(OCCCS)CN(C)CCO4)cc3)ccc2c1 (centres undefined) | 147 µM | 0.16 µM | Ratio IC50 [2]: < 136; Ratio IC50 [3]: < 136; Ratio IC50 [4]: < 136 |
| CN1CCSC(c2ccc(-c3ccccc3)cc2)C1 (centres undefined) | 299 µM | 15 µM |  |
| CN1CCOC(OCCCO)(c2ccc(-c3ccccc3)cc2)C1 (centres undefined) | 333 µM | 24.9 µM |  |
| COc1cccc([C@H]2O[C@H](CC(=O)N3CCC(CC(=O)O)CC3)C(=O)N(CC(C)(C)COC(C)=O)c3ccc(Cl)cc32)c1OC [LAPAQUISTAT ACETATE] |  |  | IC50 (Squalene synthase [9]): 0.078 µM |
| CN1CCOC(OCCCO)(c2ccc(-c3ccc4ccccc4c3)cc2)C1 (centres undefined) | 259 µM | 6.2 µM |  |
| c1ccc(-c2ccc(C3CN4CCCCC4CO3)cc2)cc1 (centres undefined) | 179 µM | 7.5 µM |  |
